This is an account of results in ChEMBL document CHEMBL3507680, “University of Dundee, Gates Library screen for HepG2 cell viability”.

Each structure is given as a SMILES string.

The nature of the data set: Human HepG2 cell viability assay in 384 well format. The class given is toxicity, cell-based. Details: dose 125 nL, time 70.5 hour; concentration not given beside the values. The note with it: HepG2 cells, read-out: Inhibition.

Consider `O=C(NCc1nc[nH]n1)c1cc(COc2cccc(F)c2)[nH]n1`, for which the cytotoxicity at 70.5 h was 11.1%.

As for `Cn1ccnc1C(=O)N1CCCC(Cn2cc(CO)nn2)C1` (stereo unspecified), the cytotoxicity at 70.5 h is -1.24%.

On to `CN(C)c1cnn(CC(=O)N2CCN(Cc3cccs3)CC2)c(=O)c1`, for which the cytotoxicity at 70.5 h was -8.39%. As for `COCc1cc(N2CCOC(c3ccc(Cl)cc3)C2)ncn1` (stereo unspecified), the cytotoxicity at 70.5 h was -10.8%.

`CC(C)NC(=O)CNC(C)COc1ccccc1` (stereo unspecified): the cytotoxicity at 70.5 h is -12.1%. As for `c1ccc(CCc2noc(CN3CCC(N4CCSCC4)CC3)n2)cc1`, the figure is -2.58%; as for `CCC(CNC(=O)c1cc(CC(C)C)nn1C)N(C)CC` (stereo unspecified), -8.14%; as for `Cc1n[nH]cc1C(=O)NCc1cccnc1N1CCc2ccccc2C1`, -3.05%. The value for `O=C(CN1C(=O)CCNC1=O)N1CCC(c2ccc(F)cc2)C1` (stereo unspecified) was -5.75%. The value for `CN(C)CC1(O)CCCN(c2noc(-c3ccccc3)n2)CC1` (stereo unspecified) was 6.79%; that for `CN(C)Cc1csc(-c2nccn2Cc2ccsc2)c1` was 3.09%. In the case of `CCNC(=O)C1CCN(c2cc(CC)nc3ccnn23)C1` (stereo unspecified), the cytotoxicity at 70.5 h stood at 15.1%. As for `Cc1ccc2nc(CN(C)Cc3n[nH]c4c3CCCCC4)[nH]c2c1C`, the figure is -3.25%. The value for `CCC(C)Oc1ccccc1CN1Cc2ncccc2C1=O` (stereo unspecified) was 0.0852%; that for `CCCn1cc(NC(=O)NCC2CCS(=O)(=O)C2)nn1` (stereo unspecified) was -9.78%. The value for `CCc1cc(N(C)Cc2noc(CC(C)C)n2)ncn1` was 21.2%; that for `O=C(CN1C[C@H]2CC[C@@H]1CN(Cc1ccccn1)C2)NCc1cccs1` was -7.94%. Take `Cc1nc(CCNC2CCN(Cc3ccccc3)C2)sc1C` (stereo unspecified): the cytotoxicity at 70.5 h was -4.05%. As for `CC(CO)CN(Cc1ccccc1)Cc1cnc2ccccc2n1` (stereo unspecified), the cytotoxicity at 70.5 h is -8.82%.

`CCC[C@@H]1CN(C(=O)c2c(F)ccc(C)c2Cl)C[C@H]1C(=O)O`: the cytotoxicity at 70.5 h was 0.166%. As for `CCc1oc(C(=O)N(C)Cc2ccncc2)cc1CN(CC)CC`, the figure is -6.93%; as for `CCCOC(=O)N1CCCn2nc(C(=O)Nc3ccccc3)cc2C1`, -9.85%; as for `O[C@@H]1CN(CC2CC2)CC[C@H]1N1CCN(c2ccccc2F)CC1`, 0.0849%. Turning to `CCCc1nc(N2CCN(Cc3ccccn3)CC2)c2cnn(C)c2n1`, the cytotoxicity at 70.5 h is -6.11%. On to `c1ccc(N2CCCC(c3nc(-c4cccnn4)no3)C2)nc1` (stereo unspecified), for which the cytotoxicity at 70.5 h was -11.5%. As for `O=C1CC2(CCN(Cc3ncc[nH]3)CC2)CN1Cc1ccc(Cl)cc1`, the figure is -2.21%.

With `COc1cccc(-c2n[nH]cc2C(=O)NC(C)c2n[nH]c(C)n2)c1` (stereo unspecified), the cytotoxicity at 70.5 h stood at 13.9%. In the case of `CN1CCCN(c2cnn(Cc3ccncc3)c(=O)c2)CC1`, the cytotoxicity at 70.5 h was -9.95%. The value for `CCc1cc(N2CCC(NCCSc3nnnn3C)CC2)nc(C)n1` was -0.17%; that for `Cc1nccn1CCC1CCN(c2ncccn2)CC1` was -6.44%; that for `CCN(CC)CCN(C)c1nc(-c2ccc(Cl)cc2)nc2c1CNC2` was 20.6%. The value for `CN(CCCOc1ccccc1Cl)C(=O)CN1CCCCCC1=O` was -0.255%; that for `COc1cccc(CN2CCC(CO)(Cc3ccc(Cl)cc3)CC2)c1O` was -5.98%; that for `COc1ccc2c(C)c(C(=O)NC3CCCOC3)oc2c1` (stereo unspecified) was -4.44%. With `N#Cc1ccccc1CN1CCCC(c2nccn2CC2CC2)C1` (stereo unspecified), the cytotoxicity at 70.5 h was found to be 12.6%. The value for `CNC(=O)c1n[nH]c2c1C(c1cccc3[nH]ccc13)CC(=O)N2` (stereo unspecified) was -3.23%; that for `O=C(O)c1cn(CC2CCCN(c3nccc4occc34)C2)nn1` (stereo unspecified) was -14.6%; that for `COCc1cc(CN(C)C(=O)CCC(=O)Nc2cc(C)ccc2F)n[nH]1` was -6.52%. As for `CCn1cc(CN2CCCC(c3[nH]ncc3-c3ccc(F)cc3)C2)cn1` (stereo unspecified), the figure is -19.8%; as for `CCc1nc(CN(C)c2nccc(N3CCCC(O)C3)n2)no1` (stereo unspecified), -0.51%. In the case of `COc1ccc2c(c1)OCC(CNc1cc(N)nc(SC)n1)C2` (stereo unspecified), the cytotoxicity at 70.5 h was -0.598%. The value for `CC(C)(C)CCN1CCCC(Cn2cc(CCO)nn2)C1` (stereo unspecified) was -9.34%; that for `Cn1cc(CN(CC2(O)CCNC2)C2CCCCC2)cn1` (stereo unspecified) was 5.59%. The value for `CN(CCCN1CCCC1)[C@@H]1c2ccccc2C2(CCNCC2)[C@H]1O` was 14.4%. The value for `O=C1NCCN1CCNc1cc(-c2ccccc2)nc2ccnn12` was -2.75%.

Turning to `Cc1nn(C)c(C)c1NC(=O)c1cccc(CN2CC[C@H](O)C2)c1`, the cytotoxicity at 70.5 h is -0.546%. On to `CCc1cc(N2CCC(F)(F)CC2)n2nc(C)c(C)c2n1`, for which the cytotoxicity at 70.5 h is -7.1%.

As to `Cc1[nH]nc(CCC(=O)NCC2CCN(C3CCCCC3)C2)c1C` (stereo unspecified), the cytotoxicity at 70.5 h was -4.71%.

Take `Cc1cc(C)n(C2CN(C(=O)CN3C(=O)CSc4ccccc43)C2)n1`: the cytotoxicity at 70.5 h is 0.11%.

Take `Cc1ccc(OCC(=O)N2CCN[C@H]3CS(=O)(=O)C[C@H]32)cn1`: the cytotoxicity at 70.5 h was -16.7%. The value for `CS(=O)(=O)NCc1cc2n(n1)CCCN(Cc1cc3ccccc3o1)C2` was -5.83%; that for `CCc1cnc(NCC(c2ccncc2)N2CCOCC2)nc1` (stereo unspecified) was -6.68%. As for `CN(C)CCN(C)c1ccc(-c2nc(COc3ccccc3)no2)cn1`, the figure is 6.86%; as for `CCN(CC)Cc1cc(C(=O)N2CC(C)(C)[C@@](C)(O)C2)c(C)o1`, 8.35%; as for `Cn1c(Cn2cccn2)nnc1C1CCN(Cc2cccnc2)CC1`, -3.7%. The value for `COc1cc(C)cc(C(C(=O)O)N(C)Cc2ccon2)c1OC` (stereo unspecified) was -0.471%. As to `OC1(CN2CCCC2)CCCN(c2ncnc3[nH]cnc23)C1` (stereo unspecified), the cytotoxicity at 70.5 h was -2.89%. Turning to `Cn1cc(C#N)cc1C(=O)N1CCC2(CCCN(CC3CCC3)C2=O)C1` (stereo unspecified), the cytotoxicity at 70.5 h was -4.46%.

For `Cn1cccc1C(=O)N1CCCC(Cn2cc(CO)nn2)C1` (stereo unspecified), the cytotoxicity at 70.5 h was -2.41%. As for `Cc1ncncc1C(=O)N1C[C@H]2CC[C@@H]1CN(C(=O)c1ccncc1)C2`, the figure is -0.209%; as for `COCc1ncc(CN2CCC(Oc3ccccc3C)CC2)cn1`, -16.4%; as for `COCC(=O)NCc1cc2n(n1)CCCN(Cc1ccccc1SC)C2`, -6.55%. The value for `OCC(O)CN1CCc2onc(-c3ccc(C(F)(F)F)cc3)c2C1` (stereo unspecified) was -8.17%; that for `Cc1nccc(-c2ccccc2)c1C(=O)N1CCC2(CC(=O)NC2=O)C1` (stereo unspecified) was -0.158%. The value for `O=C(COc1cccc(Cl)c1)N1CCOCC(O)(CN2CCCC2)C1` (stereo unspecified) was -3.79%. Consider `CCc1cc(CN(C)C(=O)c2nnc(CN(C)C)o2)on1`, for which the cytotoxicity at 70.5 h is -4.97%. As to `CCC[C@H]1CN(CCS(C)(=O)=O)C[C@@H]1NC(=O)c1ccn(C)n1`, the cytotoxicity at 70.5 h was -4.29%. The value for `CCc1ccccc1OC1CN(C(=O)c2ccsc2)C1` was -3.52%; that for `Cc1ncsc1CN1CCC2(CC1)CC(=O)N(Cc1ccc(Cl)cc1)C2` was -3.74%; that for `Cc1nn(C)c2nc(N(Cc3ccncc3)CC3CCCO3)sc12` (stereo unspecified) was -5.1%. As for `c1nc(N2CCc3nc[nH]c3C2)c2cc[nH]c2n1`, the figure is 2.38%.
